Measured values: article PMC9220351, “Evaluation of a Conformationally Constrained Indole Carboxamide as a Potential Efflux Pump Inhibitor in Pseudomonas aeruginosa” (Antibiotics, 2022)
Like-named read-outs stand apart in the source and are kept apart here.

What was measured:
[1] = tested on: P. aeruginosa K3698 (∆oprM); experiment: MIC / potentiation assay, strain K3698; type: cell-based, Pseudomonas aeruginosa; details: Pseudomonas aeruginosa, read-out: MICs K3698 (∆oprM)
From the text: P. aeruginosa ATCC 27853 was obtained from the American Type Culture Collection (ATCC; Manassas, VA, USA). P. aeruginosa multidrug-resistant isolates were obtained from the CDC and FDA Antibiotic Resistance Isolate Bank (Atlanta, GA, USA). P. aeruginosa DA7232 (gyrA-T83I, parC-S80L) was a kind gift from Prof. Dan I. Andersson, Uppsala University, Uppsala, Sweden, and has been characterized elsewhere. P. aeruginosa strains K767 (WT), K1455 (mexAB-oprM overexpressed), K2415 (mexXY-oprM overexpressed), and K3698 (oprM∆) were obtained from Prof. Keith Poole, Queen’s University, Kingston, Ontario, Canada and have been characterized elsewhere. Bacterial cells were grown in cation-adjusted Mueller Hinton (CAMH) media, brain heart infusion broth (BHI), or tryptic soy agar (TSA) plates were all obtained from Becton, Dickinson, and Company (BD; Franklin Lakes, NJ, USA). […] Azithromycin was purchased from Tokyo Chemical Industry (Portland, OR, USA). […] Ethidium bromide (EtBr) and glucose were purchased from VWR (Radnor, PA, USA). MC-04,124 and TXA01182 were synthesized at TAXIS Pharmaceuticals. Carbonyl cyanide 3-chlorophenylhydrazone (CCCP) was purchased from Enzo Life Sciences (Farmingdale, NY, USA). DiOC2 (3) and propidium iodide were obtained from Thermo Fisher Scientific (Waltham, MA, USA).
(§1) MIC assays were performed as described previously.

[2] = tested on: 209 P. aeruginosa clinical isolates from three US hospitals; experiment: Susceptibility study, Micromyx panel; type: cell-based, Pseudomonas aeruginosa; details: for Cumulative Susceptibility % Strains at 1: concentration 1 µg/ml; for Cumulative Susceptibility % Strains at 2: concentration 2 µg/ml; for Cumulative Susceptibility % Strains at 4: concentration 4 µg/ml; for Cumulative Susceptibility % Strains at 8: concentration 8 µg/ml; for Cumulative Susceptibility % Strains at 16: concentration 16 µg/ml; for Cumulative Susceptibility % Strains at 32: concentration 32 µg/ml; for Cumulative Susceptibility % Strains at >32: concentration >32 µg/ml
From the text: (§2) First, 209 clinical isolates of P. aeruginosa were collected, unbiased of susceptibility, from three US hospitals by Micromyx (now part of Microbiologics; Kalamazoo, MI, USA). IHMA (Monthey, Switzerland) collected 300 P. aeruginosa clinical isolates, also unbiased of susceptibility, from the following 63 countries: Argentina, Australia, Belgium, Brazil, Canada, Chile, Colombia, Costa Rica, Croatia, Czech Republic, Denmark, Dominican Republic, Ecuador, France, Georgia, Germany, Greece, Guatemala, Hong Kong, Hungary, India, Ireland, Israel, Italy, Japan, Jordan, Kazakhstan, Kenya, South Korea, Kuwait, Latvia, Lebanon, Lithuania, Malaysia, Mexico, Morocco, Netherlands, New Zealand, Nigeria, Panama, Philippines, Poland, Portugal, Puerto Rico, Qatar, Romania, Russia, Saudi Arabia, Serbia, Slovenia, South Africa, Spain, Sweden, Switzerland, Taiwan, Thailand, Tunisia, Turkey, Ukraine, United Kingdom, United States, Venezuela, and Vietnam. Isolates came from the following types of infection: genitourinary (urine), gastrointestinal (stomach), gastrointestinal (pancreas), […] (wound), respiratory (sputum), […] (blood), respiratory (bronchoalveolar lavage), […] (burn), respiratory (endotracheal aspirate), bodily fluids (abscess/pus), […] (impetiginous lesions), gastrointestinal (abscess) and respiratory (bronchial brushing). CF patients were not excluded.
as §1

[3] = tested on: 300 P. aeruginosa clinical isolates from 63 countries; experiment: Susceptibility study, IHMA panel; type: cell-based, Pseudomonas aeruginosa; details: for Cumulative Susceptibility % Strains at 1: concentration 1 µg/ml; for Cumulative Susceptibility % Strains at 2: concentration 2 µg/ml; for Cumulative Susceptibility % Strains at 4: concentration 4 µg/ml; for Cumulative Susceptibility % Strains at 8: concentration 8 µg/ml; for Cumulative Susceptibility % Strains at 16: concentration 16 µg/ml; for Cumulative Susceptibility % Strains at 32: concentration 32 µg/ml; for Cumulative Susceptibility % Strains at >32: concentration >32 µg/ml
From the text: as §2, §1

[4] = tested on: P. aeruginosa mutants EPIR1S, EPIR9S, EPIR20L, EPIR43; experiment: MIC of antimicrobials in TXA09155-resistant mutants; type: cell-based, Pseudomonas aeruginosa; details: Pseudomonas aeruginosa
Procedure: (§3) All resistant colonies were verified by determining the MIC to TXA09155. […] This two-component system regulates the expression of more than 100 genes in P. aeruginosa, including genes that code for efflux components (mexX), and plays a role in the resistance to cationic antimicrobial peptides and aminoglycoside antibiotics.
as §1

P. aeruginosa ATCC 27853 [5] = experiment: MIC / antibiotic potentiation assay, wild-type strain; details: for MIC: Pseudomonas aeruginosa
P. aeruginosa ATCC 27853 [6] = type: cell-based, Pseudomonas aeruginosa
Procedure: as §3
The frequency of resistance studies was carried out as described previously.

[7] = tested on: P. aeruginosa ATCC 27853 inner membrane; experiment: Flow cytometry propidium iodide (PI) assay for inner membrane permeabilization; type: cell-based, Pseudomonas aeruginosa; details: no inner membrane permeabilization below this concentration
Procedure: Membrane disruption was assayed with two approaches: (1) a flow cytometry-based propidium iodide (PI) assay to monitor inner membrane permeabilization, and (2) a nitrocefin (NCF) assay to monitor outer membrane permeabilization. NCF is a chromogenic cephalosporin that changes from yellow to red when the amide bond in the β-lactam ring is hydrolyzed by a β-lactamase. The rate of hydrolysis in intact cells is slow, as it is limited by the rate of diffusion of periplasmic β-lactamase across the outer membrane. However, in the presence of an agent that permeabilizes the outer membrane, the rate of hydrolysis will increase [33]. […] Polymyxin B was used as a positive control (Figure 2B). […] Cells whose membranes remain intact exclude PI and remain non-fluorescent, while cells with compromised membrane integrity allow PI to enter and bind to DNA, resulting in fluorescence.
A flow cytometry assay used for assessing potential inner membranes permeabilization of P. aeruginosa bacterial cells to PI was conducted using the LIVE/DEAD BacLight Kit from Invitrogen (Waltham, MA, USA). […] Intracellular PI fluorescence was detected by flow cytometry using a CytoFlex (Beckman Coulter Inc., Brea, CA, USA). […] For each sample, the fluorescence of 10,000 individual bacterial cells was measured, and the percent of cells that stained positive for PI fluorescence was calculated.

P. aeruginosa DA7232 = experiment: Levofloxacin accumulation assay; type: cell-based, Pseudomonas aeruginosa; details: levofloxacin 64 μg/mL; compound 1/2, 1/4th, 1/8th MIC
Procedure: Similar assays have been described elsewhere with the same purpose.
The treated bacterial culture samples were incubated on ice for 15 min, centrifuged, washed with 1X PBS (pH 7.4), and then resuspended in 1 mL of glycine-HCl buffer (pH 3.0) overnight, followed by centrifugation. The fluorescence of 100 μL of supernatant was read at 490 nm following a 355 nm excitation in a SpectraMax iD5 spectrophotometer (Molecular Devices, San Jose, CA, USA).

CYP2C19 = CYP2C19 (Homo sapiens, UniProt P33261); experiment: CYP inhibition; type: in vitro ADME; details: read-out: CYP Inhibition IC50, CYP 2C19
CYP3A4 = CYP3A4 (Homo sapiens, UniProt P08684); experiment: CYP inhibition; type: in vitro ADME; details: read-out: CYP Inhibition IC50, CYP 3A4
[8] = n: 209, in combination TXA09155 fixed […]
[9] = n: 300, in combination TXA09155 fixed […]
[10] = TXA09155 fixed […], 209 isolates
[11] = TXA09155 fixed […], 300 isolates

Chain of CYP3A4 (P08684 whole entry): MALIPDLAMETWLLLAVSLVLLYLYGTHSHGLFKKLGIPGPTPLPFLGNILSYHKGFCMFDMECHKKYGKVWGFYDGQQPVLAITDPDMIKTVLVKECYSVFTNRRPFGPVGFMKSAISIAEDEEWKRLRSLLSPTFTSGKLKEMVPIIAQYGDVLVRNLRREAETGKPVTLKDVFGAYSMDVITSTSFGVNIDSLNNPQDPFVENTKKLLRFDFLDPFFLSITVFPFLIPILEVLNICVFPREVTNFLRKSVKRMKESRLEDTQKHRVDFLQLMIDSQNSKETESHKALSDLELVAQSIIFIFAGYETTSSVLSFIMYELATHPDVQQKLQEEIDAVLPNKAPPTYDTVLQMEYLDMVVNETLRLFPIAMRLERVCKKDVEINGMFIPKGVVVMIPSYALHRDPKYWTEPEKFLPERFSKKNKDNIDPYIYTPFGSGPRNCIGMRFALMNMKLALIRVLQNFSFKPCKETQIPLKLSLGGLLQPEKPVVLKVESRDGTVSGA
Chain of CYP2C19 (P33261 whole entry): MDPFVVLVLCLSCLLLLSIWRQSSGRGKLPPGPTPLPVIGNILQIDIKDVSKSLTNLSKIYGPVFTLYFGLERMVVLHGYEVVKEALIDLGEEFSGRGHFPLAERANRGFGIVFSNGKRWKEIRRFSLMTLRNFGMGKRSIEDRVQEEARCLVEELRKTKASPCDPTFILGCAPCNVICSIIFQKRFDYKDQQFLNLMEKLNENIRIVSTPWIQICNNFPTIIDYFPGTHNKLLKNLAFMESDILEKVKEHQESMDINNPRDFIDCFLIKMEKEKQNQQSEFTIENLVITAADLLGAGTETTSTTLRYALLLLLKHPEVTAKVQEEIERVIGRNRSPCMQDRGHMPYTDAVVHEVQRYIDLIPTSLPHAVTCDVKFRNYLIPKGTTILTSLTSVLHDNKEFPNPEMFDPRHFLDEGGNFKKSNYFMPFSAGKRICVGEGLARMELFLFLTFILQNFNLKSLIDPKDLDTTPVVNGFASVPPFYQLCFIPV

SMILES	Cumulative Susceptibility % Strains at 1 ([2]; n: 209) [%]	Cumulative Susceptibility % Strains at 2 ([2]; n: 209) [%]	Cumulative Susceptibility % Strains at 4 ([2]; n: 209) [%]	Cumulative Susceptibility % Strains at 8 ([2]; n: 209) [%]	Cumulative Susceptibility % Strains at 16 ([2]; n: 209) [%]	Cumulative Susceptibility % Strains at 32 ([2]; n: 209) [%]	Cumulative Susceptibility % Strains at >32 ([2]; n: 209) [%]	Cumulative Susceptibility % Strains at 1 ([3]; n: 300) [%]	Cumulative Susceptibility % Strains at 2 ([3]; n: 300) [%]	Cumulative Susceptibility % Strains at 4 ([3]; n: 300) [%]	Cumulative Susceptibility % Strains at 8 ([3]; n: 300) [%]	Cumulative Susceptibility % Strains at 16 ([3]; n: 300) [%]	Cumulative Susceptibility % Strains at 32 ([3]; n: 300) [%]	Cumulative Susceptibility % Strains at >32 ([3]; n: 300) [%]	MIC ([4]; strain EPIR1S (phoQ-L175R)) [µg/mL]	MIC ([4]; strain EPIR9S (phoQ-L175R)) [µg/mL]	MIC ([4]; strain EPIR20L (phoQ-H248D)) [µg/mL]	further results
C[C@H]1COc2c(N3CCN(C)CC3)c(F)cc3c(=O)c(C(=O)O)cn1c23 [Levofloxacin]	58	68	78	86	93	98	100	69	78	83	84	89	95	100	1	1	1	MIC [1]: 0.031 µg/mL; % R (percent resistant per breakpoints) ([2]; LVX ≤1S 2I ≥4R, n: 209): 32%; Cumulative Susceptibility % Strains at 0.5 ([2]; concentration 0.5 µg/ml, n: 209): 47%; Cumulative Susceptibility % Strains at 0.12 ([2]; concentration column 0.12 µg/ml, n: 209): 2%; MIC50 [2, 8]: 1 µg/mL; MIC90 [2, 8]: 16 µg/mL; % R (percent resistant per breakpoints) ([3]; LVX ≤1S 2I ≥4R, n: 300): 22%; Cumulative Susceptibility % Strains at 0.5 ([3]; concentration 0.5 µg/ml, n: 300): 60%; Cumulative Susceptibility % Strains at 0.06 ([3]; concentration column 0.06 µg/ml, n: 300): 1%; MIC50 [3, 9]: 0.5 µg/mL; MIC90 [3, 9]: 32 µg/mL; MIC (P. aeruginosa ATCC 27853 [5]; ATCC27853, read-out: Antibiotic MIC in Presence of TXA09155 at a Concentration of 0): 1 µg/mL; MIC (P. aeruginosa ATCC 27853 [5]; ATCC27853, read-out: MICs, Lack of EPI): 1 µg/mL; Antibiotic MIC in Presence of TXA09155 at a Concentration of 3.13 (P. aeruginosa ATCC 27853 [5]; TXA09155 3.13 μg/mL): 1 µg/mL; Antibiotic MIC in Presence of TXA09155 at a Concentration of 25 (P. aeruginosa ATCC 27853 [5]; TXA09155 25 μg/mL): 0.063 µg/mL
NCCC[C@H](N)CNC(=O)c1cc2ccc(-c3ccc(F)cc3)cc2[nH]1 [TXA01182]	–	–	–	–	–	–	–	–	–	–	–	–	–	–	–	–	–	Frequency of resistance, Levofloxacin (4 μg/mL) + TXA01182 ([…]) (P. aeruginosa ATCC 27853 [6]; levofloxacin 4 μg/mL + EPI […]): <3.33 × 10^−9
Cl.NC[C@@H]1CN[C@H](CNC(=O)c2cc3ccc(-c4ccc(F)cc4)cc3[nH]2)C1 [TXA09155, N-(((2S,4R)-4-(aminomethyl)pyrrolidine-2-yl)methyl)-6-(4-fluorophenyl)-1H-indole-2-carboxamide hydrochloride salt]	2	2	3	6	9	36	100	2	6	7	7	9	13	100	200	100	200	levofloxacin MIC50 in presence of TXA09155 [2, 10]: 0.12 µg/mL; levofloxacin MIC90 in presence of TXA09155 [2, 10]: 2 µg/mL; levofloxacin MIC50 in presence of TXA09155 [3, 11]: 0.06 µg/mL; levofloxacin MIC90 in presence of TXA09155 [3, 11]: 8 µg/mL; concentrations without inner membrane disruption (basal PI fluorescence) [7]: < 50 µg/mL; accumulation of levofloxacin inside P. aeruginosa (P. aeruginosa DA7232): concentration-dependent manner; fold reduction of the FoR to levofloxacin (P. aeruginosa ATCC 27853 [6]): more than 149 fold; FoR, resistance to TXA09155 alone (1×-MIC) (P. aeruginosa ATCC 27853 [6]; 50 μg/mL): 1.9 × 10^−3; FoR, resistance to TXA09155 alone (4×-MIC) (P. aeruginosa ATCC 27853 [6]; 200 μg/mL): 1.40 × 10^−6; IC50 (CYP2C19): > 100 µM; IC50 (CYP3A4): 28.5 µM; MIC (P. aeruginosa ATCC 27853 [5]; ATCC27853): 50 µg/mL; lowest active concentration for TXA09155 (P. aeruginosa ATCC 27853 [5]; antibiotic potentiation): 6.25 µg/mL
